Results: patent publication US20220387403A1, “COMPOUNDS, COMPOSITIONS AND METHODS FOR TREATING NASH, NAFLD, AND OBESITY” (CVI Pharmaceuticals Limited, priority 2019, published 2022)

Experiments:
HepG2 cells = test: DiI-LDL uptake (LDLR ligand uptake activity) in HepG2 cells; type: cell-based, human; conditions: for Activity on DiI-LDL uptake: A, compound dose ≤ 10 μM, 20 hours
Procedure: HepG2 cells (2×10^5 cells/well) in 24-well culture plates were treated with various compounds at indicated concentrations for 20 hours. The fluorescent 1.1′-dioctadecyl-3,3,3′,3′-tetramethylindocarbocyanin perchlorate (DiI-LDL) (Biomedical Technologies, Stoughton, Mass.) at a concentration of 2 μg/mL was added to cells at the end of treatment. After 4 hours, the medium was removed, cells were washed with cold PBS, and were examined immediately under a fluorescent microscope (Nikon) at 200× amplification. The fluorescent intensity in compound-treated cells was compared to that in untreated control cells. […] In these experiments berberine chloride was used for comparison.
The combined beneficial effects of these novel compounds on elevation of LDLR mRNA levels likely through the mechanism of mRNA stabilization and their inhibitory activity towards PCSK9, the secreted protease that degrades LDLR protein, result in strong increases in LDL ligand uptake activity through increased receptor surface abundance. […] Briefly, HepG2 cells (2×10^5 cells/well) in 24-well culture plates were treated with various compounds at 10 and 40 uM concentrations for 20 hours. The fluorescent 1. 1′-dioctadecyl-3,3,3′, 3′-tetramethylindocarbocyanin perchlorate (DiI-LDL) (Biomedical Technologies, Stoughton, Mass.) at a concentration of 2 μg/ml was added to cells at the end of treatment. After 4 hours, the medium was removed; cells were washed with cold PBS, and were examined immediately under a fluorescent microscope (Nikon) at 200× amplification. The fluorescent intensity in compound-treated cells was compared to that in untreated control cells. […]

LDLR mRNA = LDLR mRNA expression in HepG2 cells, quantitative real-time RT-PCR; type: cell-based, human; conditions: 24 hours; for Activity on LDLR mRNA expression (Fold of control): dose less than or equal to 10 μM; for Activity on LDLR mRNA at 40 uM (fold of control) / Activity on LDLR mRNA at 10 uM (fold of control): mean ± s.d.
Procedure: Activities of some compounds of Formulas I, II, III, and IV on LDLR mRNA expression were determined. HepG2 cells were treated with new compounds individually at a dose less than or equal to 10 μM for 24 hours. Total RNA was harvested for quantitative real-time RT-PCR analysis using the method described in Example 16B. […] In these experiments, berberine chloride was included for comparison. […]
Total RNA was harvested for quantitative real-time RT-PCR analysis using method described in Examples 16B.
(§1) The effects of 23 compounds on the mRNA expressions of LDLR and PCSK9 were examined using quantitative real-time RT-PCR assays. HepG2 cells were treated with various compounds at 10 and 40 uM concentrations for 24 hours. Total RNA was isolated and 2 μg was used to generate cDNA in a reaction containing random primers and M-MLV at 37° C. for 1 h in a volume of 25 μl. Real-time PCR was performed on the cDNA using MCEP REALPLEX 2 SYSTEM (Eppendorf) and Universal MasterMix (Applied Biosystems). Human LDLR, PCSK9, and GAPDH Pre-Developed TaqMan Assay Reagents (Applied Biosystems) were used to assess the levels of mRNA expressions in HepG2. The levels of LDLR and PCSK9 mRNA were normalized to that of GAPDH. Each RNA samples was assayed in duplicate. The fold activity was calculated by dividing mRNA abundance in compound treated cells with that of control.

PCSK9 mRNA = PCSK9 mRNA expression in HepG2 cells, quantitative real-time RT-PCR; type: cell-based, human; conditions: 24 hours
Procedure: The time-dependent effects of compounds of Formula I, II, III, and IV on the upregulation of LDLR mRNA and the inhibition of PCSK9 mRNA expression were examined (Horton J D, Cohen J C, Hobbs H H. “Molecular biology of PCSK9: its role in LDL metabolism” TRENDS in Biochemical Sciences 2007; 32:71-77). HepG2 cells were treated with new compounds individually at 20 uM dose for 1 day, 2 day, and 3 days. Total RNA was isolated and 2 μg was used to generate cDNA in a reaction containing random primers and M-MLV at 37° C. for 1 hour in a volume of 25 μl. Real-time PCR was performed on the cDNA using MCEP REALPLEX 2 SYSTEM (Eppendorf) and Universal MasterMix (Applied Biosystems). Human LDLR, PCSK9, and GAPDH Pre-Developed TaqMan Assay Reagents (Applied Biosystems) were used to assess the levels of mRNA expressions in HepG2. The levels of LDLR mRNA or PCSK9 mRNA were normalized to that of GAPDH. Each RNA samples was assayed in triplicate. The abundance of LDLR mRNA or PCSK9 mRNA in untreated cells was defined as 1, and the amounts of LDLR mRNA or PCSK9 from compound-treated cells were plotted relative to that value (FIG. 10). The data shown are mean±s.d.
Total RNA was harvested for quantitative real-time RT-PCR analysis using method described in Examples 16B. The fold activity was derived by dividing the amount of normalized LDLR or PCSK9 mRNA in compound-treated cells over the amount of LDLR or PCSK9 mRNA in untreated control cells.
as §1

NASH hamster model = test: Free-choice diet-induced NASH hamster model; type: in vivo; conditions: C128 100 mg/kg, elafibranor 15 mg/kg, orally QD for 5 weeks
Procedure: In a free-choice diet-induced NASH hamster model, hamsters were fed a free choice diet (free choice between a chow diet with normal tap water or a high fat/cholesterol diet (Safe Diets) with 10% fructose enriched tap water) for up to 20 weeks (15 weeks diet and 5 weeks treatment). After 15 weeks of diet, hamsters were randomized into 3 homogenous groups (n=10/group) and were treated with vehicle, compound 128 (C128) at 100 mg/kg, or PPAR dual agonist elafibranor 15 mg/kg orally QD for 5 weeks. […] The study results are illustrated by FIGS. 17 to 19.

NAFLD hamster model = test: High fat and high cholesterol diet induced NAFLD hamster model; type: in vivo; conditions: C128 10, 20 and 40 mg/kg; fenofibrate 50 mg/kg; 4 weeks
Procedure: In a high fat and high cholesterol diet (HFHCD) induced non-alcoholic fat liver disease (NAFLD) hamster model, hamsters were fed a HFHCD for two weeks then treated for 4 weeks with C128 at 10 mg/kg, 20 mg/kg and 40 mg/kg, along with fenofibrate at 50 mg/kg as a positive control. Serum lipids and liver enzymes were measured using standard techniques. Liver tissue histopathology with Oil-red O staining and H&E staining were also performed.
In a high fat and high cholesterol diet (HFHCD) induced NAFLD hamster model, hamsters were fed a HFHCD for two weeks then treated for 4 weeks with C127 at 80 mg/kg or with fenofibrate 50 mg/kg.

[1] = 40 uM, 20 hours (second symbol of the cell)
[2] = 10 uM, 20 hours (first symbol of the cell)

SMILES: COc1ccc2c(c1O)CN1CCc3cc4c(cc3C1C2)OCO4 (centres unmarked) [Compound 34, 10-methoxy-5,6,7,8,13,13a-hexahydro-2H-1,3-dioxolano[4,5-g]isoquinolino[3,2-a]isoqunolin-9-ol]
- Activity on DiI-LDL uptake (HepG2 cells): ++
- Activity on LDLR mRNA expression (Fold of control) (LDLR mRNA): 1.76 ± 0.17 Fold of control

SMILES: COc1ccc2c(c1OC(=O)NC(C)C)CN1CCc3cc4c(cc3C1C2)OCO4 (centres unmarked) [Compound 41, (10-methoxy(5,6,7,8,13,13a-hexahydro-2H-1,3-dioxolano[4,5-g]isoquinolino[3,2-a]isoquinolin-9-yloxy))-N-(methylethyl)carboxamide]
- Activity on DiI-LDL uptake (HepG2 cells): ++
- Activity on LDLR mRNA expression (Fold of control) (LDLR mRNA): 1.60 ± 0.03 Fold of control

SMILES: COc1ccc2c(c1OC(=O)N(C)C)CN1CCc3cc4c(cc3C1C2)OCO4 (centres unmarked) [Compound 43, (10-methoxy(5,6,7,8,13,13a-hexahydro-2H-1,3-dioxolano[4,5-g]isoquinolino[3,2-a]isoquinolin-9-yloxy))-N,N-dimethylcarboxamide]
- Activity on DiI-LDL uptake (HepG2 cells): ++
- Activity on LDLR mRNA expression (Fold of control) (LDLR mRNA): 1.95 ± 0.18 Fold of control

SMILES: COc1ccc2c(c1OC(=O)Nc1ccc(OC(F)(F)F)cc1)CN1CCc3cc4c(cc3C1C2)OCO4 (centres unmarked) [Compound 44, (10-methoxy(5,6,7,8,13,13a-hexahydro-2H-1,3-dioxolano[4,5-g]isoquinolino[3,2-a]isoquinolin-9-yloxy))-N-[4-(trifluoromethoxy)phenyl]carbox-amide]
- Activity on DiI-LDL uptake (HepG2 cells): ++
- Activity on LDLR mRNA expression (Fold of control) (LDLR mRNA): 2.20 ± 0.06 Fold of control

SMILES: COc1cc(NC(=O)Oc2c(OC)ccc3c2CN2CCc4cc5c(cc4C2C3)OCO5)cc(OC)c1 (centres unmarked) [Compound 45]
- Activity on DiI-LDL uptake (HepG2 cells): ++
- Activity on LDLR mRNA expression (Fold of control) (LDLR mRNA): 2.09 ± 0.11 Fold of control

SMILES: COc1ccc2c(c1OC(=O)Nc1cccc(C)c1)CN1CCc3cc4c(cc3C1C2)OCO4 (centres unmarked) [Compound 46, (10-methoxy(5,6,7,8,13,13a-hexahydro-2H-1,3-dioxolano[4,5-g]isoquinolino[3,2-a]isoquinolin-9-yloxy))-N-(3-methylphenyl)carboxamide]
- Activity on DiI-LDL uptake (HepG2 cells): ++
- Activity on LDLR mRNA expression (Fold of control) (LDLR mRNA): 1.80 ± 0.16 Fold of control

SMILES: COc1cc2c(cc1OC)C1Cc3ccc(OC)c(OS(=O)(=O)c4ccccc4)c3CN1CC2 (centres unmarked) [Compound 91, 2,3,10-trimethoxy-5,6,7,8,13,13a-hexahydroisoquinolino[2,1-b]isoquinolin-9-yl benzenesulfonate]
- LDLR mRNA expression vs concentration (in words) (LDLR mRNA; FIG. 15A): dose-dependently increases
- PCSK9 mRNA expression vs concentration (in words) (PCSK9 mRNA; FIG. 15B): inhibits

SMILES: COc1ccc2c(c1)CCN1Cc3c(ccc(OC)c3OS(=O)(=O)c3ccccc3)CC21 (centres unmarked) [Compound 115, 3,10-Dimethoxy-5,6,7,8,13,13a-hexahydroisoquinolino[2,1-b]isoquinolin-9-yl benzenesulfonate]
- Activity in LDL uptake (relative to control) (HepG2 cells; [1]): +++
- Activity on LDLR mRNA at 40 uM (fold of control) (LDLR mRNA): 2.65 ± 0.06 fold of control

SMILES: COc1ccc2c(c1OS(=O)(=O)c1ccccc1)CN1CCc3cc4c(cc3C1C2)OCCO4 (centres unmarked) [Compound 116, 11-Methoxy-6,7,8,9,14,14a-hexahydro-2H,3H-1,4-dioxano[5,6-g]isoquinolino[3,2-a]isoquinolin-10-yl benzenesulfonate]
- Activity in LDL uptake (relative to control) (HepG2 cells; [2]): +++/+++
- Activity in LDL uptake (relative to control) (HepG2 cells; [1]): +++/+++

SMILES: COc1ccc2c(c1OS(=O)(=O)c1cccc(F)c1)CN1CCc3cc4c(cc3C1C2)OCCO4 (centres unmarked) [Compound 129, 11-Methoxy-6,7,8,9,14,14a-hexahydro-2H,3H-1,4-dioxano[5,6-g]isoquinolino[3,2-a]isoquinolin-10-yl 3-fluorobenzenesulfonate]
- Activity on LDLR mRNA at 10 uM (fold of control) (LDLR mRNA): 2.49 ± 0.18 fold of control
- Activity on LDLR mRNA at 40 uM (fold of control) (LDLR mRNA): 1.99 ± 0.13 fold of control
- Activity on PCSK9 mRNA reduction at 10 uM (fold of control) (PCSK9 mRNA; mean ± s.d.): 1.57 ± 0.07 fold of control
- Activity on PCSK9 mRNA reduction at 40 uM (fold of control) (PCSK9 mRNA; 40 uM, mean ± s.d.): 1.68 ± 0.41 fold of control

SMILES: COc1ccc2c(c1OS(=O)(=O)c1cccc(F)c1)CN1CCc3cc(C)ccc3C1C2 (centres unmarked) [Compound 130, 10-Methoxy-3-methyl-5,6,7,8,13,13a-hexahydroisoquinolino[2,1-b]isoquinolin-9-yl 3-fluroobenzenesulfonate]
- Activity on LDLR mRNA at 10 uM (fold of control) (LDLR mRNA): 4.29 ± 0.65 fold of control
- Activity on LDLR mRNA at 40 uM (fold of control) (LDLR mRNA): 9.00 ± 1.49 fold of control
- Activity on PCSK9 mRNA reduction at 10 uM (fold of control) (PCSK9 mRNA; mean ± s.d.): 2.11 ± 0.11 fold of control

SMILES: COc1ccc2c(c1)CCN1Cc3c(cccc3OS(=O)(=O)c3cccc(F)c3)CC21 (centres unmarked) [Compound 150, 3-methoxy-5,6,7,8,13,13a-hexahydroisoquinolino[2,1-b]isoquinolin-9-yl 3-fluorobenzenesulfonate]
- Activity in LDL uptake (relative to control) (HepG2 cells; [2]): +/+
- Activity in LDL uptake (relative to control) (HepG2 cells; [1]): +/+

SMILES: CN1CCc2cc3c(cc2[C@H]1[C@@H]1O[C@H](O)c2c1ccc1c2OCO1)OCO3 [d-(+)-EGN, (+)-egenine]
- Activity on DiI-LDL uptake (HepG2 cells): +

SMILES: CSc1ccc(C(=O)/C=C/c2cc(C)c(OC(C)(C)C(=O)O)c(C)c2)cc1 [elafibranor, reference compound]
- NAS score (NASH hamster model): significant reduction
- fibrosis (NASH hamster model): reduced fibrosis, although to a lesser degree
- hepatocyte ballooning (NASH hamster model): reduced

SMILES: CC(C)OC(=O)C(C)(C)Oc1ccc(C(=O)c2ccc(Cl)cc2)cc1 [fenofibrate, reference compound]
- Body and liver weights (NAFLD hamster model): elevated by a statistically significant amount
